In the supplement of paper PMC10307832:

Tests used:
Assay in all cases: relative viability (nuclei count vs DMSO), 5 days (fraction); higher = more cells survive
[1] = compound: CCN1C(=O)C2=CC(=C(N=C2N(C1=O)C3CC3)N)C(=O)N + Cc1nc(NC(=O)N2CCC[C@H]2C(N)=O)sc1-c1ccnc(C(C)(C)C(F)(F)F)c1 [Alpelisib] (partner 2 µM)
Summary of the method: (§1)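 Lung cancer cell lines in 1536-well plates were dosed by pin tool the day after seeding, either with one drug alone or with a fixed anchor-drug dose plus five library-drug doses (not always all listed) in √10 steps. After 5 days, cells were fixed and their nuclei stained in one step (final 0.05% Triton X-100, 1% formaldehyde, 1 ug/ml Hoechst), then counted on 4× images. Relative viability is the nuclei count in treated wells divided by that in vehicle wells. Values are medians of duplicate plates.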

[2] = compound: CCN1C(=O)C2=CC(=C(N=C2N(C1=O)C3CC3)N)C(=O)N + O=C(c1cc(Cc2n[nH]c(=O)c3ccccc23)ccc1F)N1CCN(C(=O)C2CC2)CC1 [Olaparib] (partner 8 µM)
Summary of the method: as §1

[3] = compound: CCN1C(=O)C2=CC(=C(N=C2N(C1=O)C3CC3)N)C(=O)N + Nc1nc2[nH]cc(CCc3ccc(C(=O)N[C@@H](CCC(=O)O)C(=O)O)cc3)c2c(=O)[nH]1 [Pemetrexed] (partner 0.2 µM)
Summary of the method: as §1

[4] = compound: CCN1C(=O)C2=CC(=C(N=C2N(C1=O)C3CC3)N)C(=O)N + Nc1ncn([C@H]2C[C@H](O)[C@@H](CO)O2)c(=O)n1 [Decitabine] (partner 2 µM)
Summary of the method: as §1

[5] = compound: CCN1C(=O)C2=CC(=C(N=C2N(C1=O)C3CC3)N)C(=O)N + O=C(CCCCCCC(=O)Nc1ccccc1)NO [Vorinostat] (partner 1 µM)
Summary of the method: as §1

| Cell Line | relative viability ([1]; first compound 0.253 µM) | relative viability ([1]; first compound 0.8 µM) | relative viability ([1]; first compound 2.53 µM) | relative viability ([1]; first compound 8 µM) | relative viability ([2]; first compound 0.253 µM) | relative viability ([2]; first compound 0.8 µM) | relative viability ([2]; first compound 2.53 µM) | relative viability ([2]; first compound 8 µM) | relative viability ([3]; first compound 0.253 µM) | relative viability ([3]; first compound 0.8 µM) | relative viability ([3]; first compound 2.53 µM) | relative viability ([3]; first compound 8 µM) | relative viability ([4]; first compound 0.253 µM) | relative viability ([4]; first compound 0.8 µM) | relative viability ([4]; first compound 2.53 µM) | relative viability ([4]; first compound 8 µM) | relative viability ([5]; first compound 0.253 µM) | relative viability ([5]; first compound 0.8 µM) | relative viability ([5]; first compound 2.53 µM) | relative viability ([5]; first compound 8 µM) |
| --- | --- | --- | --- | --- | --- | --- | --- | --- | --- | --- | --- | --- | --- | --- | --- | --- | --- | --- | --- | --- |
| LXF-289 | 1.04 | 1.07 | 1.03 | 1.05 | 0.957 | 1.07 | 1.01 | 1.18 | 0.917 | 0.889 | 0.895 | 0.993 | 0.345 | 0.37 | 0.346 | 0.336 | 0.798 | 0.744 | 0.825 | 0.787 |
| BEN | 1.07 | 1.02 | 0.929 | 1.01 | 1.16 | 1.09 | 1.01 | 1.08 | 0.896 | 0.842 | 0.929 | 0.699 | 0.814 | 0.675 | 0.734 | 0.657 | 0.608 | 0.641 | 0.63 | 0.625 |
| NCI-H2023 | 0.634 | 0.542 | 0.574 | 0.584 | 0.463 | 0.477 | 0.451 | 0.487 | 0.198 | 0.182 | 0.222 | 0.247 | 0.214 | 0.223 | 0.209 | 0.215 | 0.628 | 0.58 | 0.68 | 0.712 |
| NCI-H1355 | 0.829 | 0.949 | 0.787 | 0.853 | 0.8 | 0.702 | 0.759 | 0.721 | 1.03 | 1 | 1.03 | 0.96 | 0.325 | 0.331 | 0.382 | 0.339 | 0.626 | 0.662 | 0.636 | 0.674 |
| NCI-H1793 | 0.715 | 0.644 |  | 0.63 | 0.921 | 0.731 | 0.851 | 0.875 | 0.915 | 0.925 | 0.805 | 0.861 | 0.527 | 0.6 | 0.531 | 0.546 | 0.665 | 0.747 | 0.797 | 0.805 |
| COR-L 105 | 1.08 | 0.959 | 0.833 | 0.853 | 0.728 | 0.768 | 0.779 | 0.677 | 0.941 | 1.01 | 0.991 | 1.16 | 0.712 | 0.657 | 0.597 | 0.785 | 0.902 | 0.779 | 0.688 | 0.819 |
| PC-14 | 0.928 | 0.942 | 0.913 | 1.06 | 0.196 | 0.26 | 0.306 | 0.308 | 0.133 | 0.14 | 0.141 | 0.149 | 0.207 | 0.171 | 0.244 | 0.193 | 0.621 | 0.743 | 0.679 | 0.779 |
| EMC-BAC-2 | 0.808 | 0.743 | 0.725 | 0.796 | 0.546 |  | 0.498 | 0.487 | 0.461 |  | 0.403 | 0.431 | 1.05 |  | 0.89 | 0.94 | 0.992 |  | 0.782 | 0.67 |
